Results on one compound are retold here after article PMC4815073, “Targeting of tubulin polymerization and induction of mitotic blockage by Methyl 2-(5-fluoro-2-hydroxyphenyl)-1H-benzo[d]imidazole-5-carboxylate (MBIC) in human cervical cancer HeLa cell” (Journal of Experimental & Clinical Cancer Research : CR, 2016).

Data set [1] deals with HCT-116 cells. Briefly: MTT cytotoxicity assay, HCT-116. Particulars: for IC50: Homo sapiens, MTT. The data set is classed as cell-based, human. From the text:
(§1) The human cervical cancer cell-line, HeLa (CCL-2.2; ATCC, Manassas, VA), HCT-116 (CCL-247; ATCC, Manassas, VA), A549 (CCL-185; ATCC, Manassas, VA), HepG-2 (HB-8065; ATCC, Manassas, VA) and WRL-68 (CL-48; ATCC, Manassas, VA), were obtained from American Type Culture Collection (ATCC). HeLa, A549, HepG2 and WRL68 cells were maintained in Dulbecco’s Modified Eagle Medium (DMEM, Life Technologies, Inc, Rockville, MD). HCT-116 was obtained in McCoy’s 5a Medium Modified (Life Technologies, Inc, Rockville, MD) supplemented with 10 % fetal bovine serum and 1 % penicillin/streptomycin. Cells were incubated at 37 °C in a humidified cell culture 5 % CO2 incubator. Cells were passaged until reaching 70-80-% confluency for experimental purposes.
(§2) Cytotoxicity of MBIC was estimated by MTT assay. Briefly, 1 × 10^4 cells/well were seeded in a 96-well plate and incubated at 37 °C in 5 % CO2. After 24 h, cells were treated with different concentrations (0.02, 0.04, 0.1, 0.2, 0.4, 0.8, 1.5, 3, 6, 12, 25, 50 μM) of MBIC. 0.01 % DMSO was used as vehicle control. Cells were incubated for 24 and 48 h at 37 °C. Subsequently, 50 μl/well of 3-(4,5-dimethylthiazol-2-yl)-2,5-diphenyltetrazolium bromide (MTT, 2 mg/ml) was added and incubated for 2 h. After the incubation, the media was discarded and 100 μl DMSO was replaced into each well to dissolve the formazan crystal. The colorimetric assay was quantified at 570 nm wavelength using Chameleon V microplate reader (Hidex, Turku, Finland). The anti-proliferation activity of MBIC was expressed as an IC50 value. The percentage of cell viability was calculated as described previously.

In data set [2] the test system is A549 cells. Briefly: MTT cytotoxicity assay, A549. The format is cell-based, human. Particulars: for IC50: Homo sapiens, MTT.
Text: as §1, §2

For data set [3], the system named is HepG-2 cells. Briefly: MTT cytotoxicity assay, HepG-2. The following applies: for IC50: Homo sapiens, HepG2, MTT. The format is cell-based, human.
Text: as §1, §2

For data set [4], the system named is WRL-68 cells. Briefly: MTT cytotoxicity assay, WRL-68 normal liver cells. The data set is classed as cell-based, human. The following applies: Homo sapiens.
Text: as §1, §2

Data set [5] can be described thus: Annexin V-FITC/PI apoptosis detection by flow cytometry. The data set is classed as cell-based, human. Particulars: human, HeLa cells, read-out: viable cells (Q3, annexin V- PI-). The procedure: (§3) Apoptosis was detected using BD Pharmingen Annexin V-FITC Apoptosis Detection Kit as per manufacturer’s protocol. Briefly, cells were seeded in 25 cm^2 culture flasks (10 × 10^5 cells/flask) and were treated in 3 different MBIC concentrations for 24 and 48 h. Later, treated cells were harvested and washed with 1 ml of 1X Phosphate Buffered-Saline (PBS) before adding 200 μl 1X annexin-binding buffer. 10 μl of annexin V-FITC and 10 μl of PI were added to each 200 μl of cell suspension. Cells were then incubated in total darkness for 15 min at room temperature. 500 μl of 1X annexin-binding buffer was added just before the flow cytometry analysis.

For data set [6], the system named is HeLa cells. The description is as above. The format is cell-based, human. Particulars: 24 h. As to the method: as §3
For data set [7], the system named is HeLa cells. Briefly: Cell cycle analysis (PI, flow cytometry). The following applies: 24 h. The data set is classed as cell-based, human. As to the method:
Cell cycle analysis was performed using propidium iodide (PI). Briefly, cells were seeded in a 25 cm^2 flask, then 60 % confluent cells were treated with MBIC for 24 and 48 h. Following incubation, the cells were harvested and spun down for 5 min at 2000 rpm. The supernatant was removed and cells were then fixed in 1 ml of ice-cold 70 % ethanol overnight at -80 °C. Fixed cells were washed with 1 ml 1X PBS and stained in 500 μl of PI containing 5 μg/ml DNase-free RNase for 30 min at room temperature in total darkness. DNA content of the cell was analyzed by flow cytometry. The percentage of G0-G1, S and G2-M cells were then calculated using Fluorescence-activated cell sorting (FACS) software (BD Biosciences).

Data set [8] concerns the target T1, tubulin (Sus scrofa, UniProt P02550+P02554).
T1 construct: purchased Cytoskeleton BK011P
Briefly: Tubulin polymerization assay. The format is biochemical. Particulars: 10 μM drug, 3 mg/ml tubulin, 37 °C, 340 nm; untreated 12 mOD/min. As to the method: To investigate the effect of MBIC on tubulin polymerization, a fluorescence-based tubulin polymerization assay kit (Cytoskeleton-Cat. # BK011P) was used according to the manufacturer’s protocol. Briefly, 200 μl of pure tubulin protein was re-suspended in 420 μl of ice cold Tubulin Polymerization Buffer (TPB) to give a final concentration of 3 mg/ml tubulin, supplemented with 80 mM PIPES, 2 mM MgCl2, 0.5 mM EGTA, 1 mM GTP, 20 % (v/v) glycerol. 100 μl of tubulin reaction mixture were added to each well in a 96-well plate containing the selected concentration of MBIC (10 μM). […] Samples were mixed well and the tubulin assembly was monitored by an increase in fluorescence emission at 340 nm in kinetic mode for 120 min at 37 °C using a plate reader (Infinite® 200 PRO—Tecan plate reader, USA).

Data set [9] concerns two breast cancer cell lines. On the set-up: method as in earlier work. Particulars: cited from earlier work.

T1 sequence (P02550 whole entry): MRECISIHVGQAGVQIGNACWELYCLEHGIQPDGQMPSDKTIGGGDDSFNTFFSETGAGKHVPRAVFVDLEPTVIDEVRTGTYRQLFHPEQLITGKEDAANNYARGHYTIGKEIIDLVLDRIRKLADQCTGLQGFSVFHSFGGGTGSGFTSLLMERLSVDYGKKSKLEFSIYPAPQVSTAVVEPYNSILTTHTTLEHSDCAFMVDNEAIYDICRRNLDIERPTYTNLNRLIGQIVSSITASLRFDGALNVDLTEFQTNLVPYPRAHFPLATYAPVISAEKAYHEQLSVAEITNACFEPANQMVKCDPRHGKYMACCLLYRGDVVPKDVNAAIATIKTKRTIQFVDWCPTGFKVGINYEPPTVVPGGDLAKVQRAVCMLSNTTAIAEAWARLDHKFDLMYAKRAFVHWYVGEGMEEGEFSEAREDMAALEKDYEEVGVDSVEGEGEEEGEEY
T1 sequence (P02554 whole entry): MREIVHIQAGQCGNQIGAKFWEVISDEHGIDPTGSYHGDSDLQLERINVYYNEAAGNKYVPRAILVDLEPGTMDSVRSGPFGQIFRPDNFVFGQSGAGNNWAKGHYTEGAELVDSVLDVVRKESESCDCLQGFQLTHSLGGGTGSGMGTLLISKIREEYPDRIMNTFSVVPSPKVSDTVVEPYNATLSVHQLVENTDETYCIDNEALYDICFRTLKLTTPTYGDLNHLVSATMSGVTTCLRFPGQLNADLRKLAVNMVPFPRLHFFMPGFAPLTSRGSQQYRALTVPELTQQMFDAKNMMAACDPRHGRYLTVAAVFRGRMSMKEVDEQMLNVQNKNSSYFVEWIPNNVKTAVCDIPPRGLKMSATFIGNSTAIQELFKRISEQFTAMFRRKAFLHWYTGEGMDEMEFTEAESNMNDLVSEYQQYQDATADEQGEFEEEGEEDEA

Consider `COC(=O)c1ccc2[nH]c(-c3cc(F)ccc3O)nc2c1` [MBIC, Methyl 2-(5-fluoro-2-hydroxyphenyl)-1H-benzo[d]imidazole-5-carboxylate], for which the IC50 in data set [1] (HCT-116, 24 hours) amounted to 2.72 ± 0.4 µM; in data set [1] (HCT-116, 48 hours) it was 2.01 ± 0.3 µM; in [2] (A549, 24 hours), 1.29 ± 0.07 µM; in data set [2] (A549, 48 hours), 0.53 ± 0.1 µM; in data set [3] (HepG-2, 24 hours), 2.92 ± 0.1 µM; in data set [3] (HepG-2, 48 hours) it was 1.03 ± 0.09 µM. Moreover, the IC50 in [4] (WRL68, 24 hours) was determined as 10.1 ± 1.2 µM; in data set [4] (WRL68, 48 hours), 7.16 ± 0.9 µM. Moreover, the “SI (Selectivity Index)” value in [1] (IC50 WRL-68 / IC50 HCT-116, 24 hours) was found to be 3.70; in [1] (IC50 WRL-68 / IC50 HCT-116, 48 hours), 3.56; in [2] (IC50 WRL-68 / IC50 A549, 24 hours), 7.82; in data set [2] (IC50 WRL-68 / IC50 A549, 48 hours), 13.50; in data set [3] (IC50 WRL-68 / IC50 HepG-2, 24 hours) it was 3.45; in data set [3] (IC50 WRL-68 / IC50 HepG-2, 48 hours), 6.95. Besides, the viability at 24 h, 0.21 µM in [5] (0.21 μM) turned out to be 48.8%. Further, in data set [5] (0.42 μM), the viability at 24 h, 0.42 µM was 36.2%. For the same compound, in data set [5] (1 μM), the viability at 24 h, 1 µM is 17.4%. Moreover, the “late apoptotic cells (Q2, annexin V+ PI+)” value worked out at 44.8 ± 2.3% in data set [6] (0.21 μM) and 74.8 ± 4.2% in data set [6] (1 μM). Further, the G2-M cell population in data set [7] (0.21 μM) was determined as 26.7 ± 6.3%; in [7] (1 μM), 42.8 ± 6.4%. In addition, the “Tubulin polymerization maximal velocity (Vmax)” value in data set [8] came to 2.45 mOD/min. Further, the “cytotoxic effect compared to cisplatin” value in data set [9] is given as “potent cytotoxic effect”.
